In patent US20050108047A1, “Business methods for commercializing antibiotics” (priority 2003, published 2005):

Test system: E. coli strain MG1655 and isogenic loss of function strains
Experiment: Stressful Lifestyle Adaptive Mutation (SLAM) assay with ciprofloxacin
Assay type: cell-based
Method: […]. Five colonies of each strain, selected from 30 ug/mL kan plates, were grown for 24 hours in LB at 37° C. Dilutions of each culture were made in duplicate and plated on LB plates to determine the number of viable cells.
Also, two 150 μL cultures from each strain were plated on five additional plates for use in ‘survival’ experiments (see below). […] Every twenty-four hours for thirteen days post-plating, colonies were counted and marked and up to 10 representative colonies per strain were stocked in 15% glycerol and stored at −80° C., for use in the reconstruction experiments (see below). […]. After thirteen days, a reconstruction experiment [see FIG. 6; also see Bull, H J, Lombardo, M J, Rosenberg, S M: Stationary-phase mutation in the bacterial chromosome: recombination protein and DNA polymerase IV dependence. Proc Natl Acad Sci USA 2001, 98:8334-8341; and Rosenberg, S M: Evolving responsively: adaptive mutation. Nature Rev Genet 2001, 2:504-515] was performed to determine which of the resistant colonies isolated had evolved resistance via adaptive mutation after exposure to the antibiotic. […]. Only those colonies that grew in a shorter time during the reconstruction experiment than in the original experiment were considered to have acquired an adaptive mutation, i.e. occurred after exposure to the antibiotic. […].
[…]. […]

## O=C(O)c1cn(C2CC2)c2cc(N3CCNCC3)c(F)cc2c1=O [ciprofloxacin]
LexA S119A mutant, 35 ng/mL ciprofloxacin
  ability to evolve resistance to ciprofloxacin, LexA(Ind−) strain versus wild type: more than two orders of magnitude less able to evolve resistance
Mutants selected at 35 ng/mL ciprofloxacin
  decrease in rate of evolving the ability to grow at 60 ng/mL ciprofloxacin, LexA mutant: 300 fold
